One experiment deals with PSS1 (Homo sapiens, UniProt P48651). Briefly: biochemical.
Experiment [1] has as its system PTDSS2 gene-disrupted (PTDSS2-KO) HCT116 cells. The experiment can be described thus: cells. The settings on record: Homo sapiens, HCT-116, 72 h, read-out: Test Example 3 PTDSS2-KO HCT116 GI50.
Method: McCoy's 5A medium containing 10% bovine serum was used as the culture medium for each cell. […] They were added to each well of 384-well plates at 40 nL/well using an Echo555 (Labcyte Inc.). […] On the day of compound addition (day 0) and 3 days after compound addition (day 3), 10 μL/well of CellTiter-Glo® 2.0 Assay (Promega, #G9242), which is a reagent for ATP measurement, was added to each well, and the amount of luminescence in each well was measured with EnVision. From the amount of luminescence on the day of compound addition (C0) and the amount of luminescence of the compound non-addition group (C3) and compound addition group (T3) after 3 days of culture, cell viability was calculated based on the following formula. Cell viability (%)=[(T3−C0)/(C3−C0)]×100
The next experiment has as its system HCT116 cells. The experiment can be described thus: cells. The settings on record: Homo sapiens, HCT-116, 72 h, read-out: Test Example 3 HCT116 GI50.
Experiment [2] has as its system PTDSS2-KO HCT116 cell-subcutaneous transplanted model. Briefly: Test Example 4: Antitumor activity on PTDSS2-KO HCT116 cell-subcutaneous transplanted model. Format: in vivo, female BALB/c-nu/nu mice. The settings on record: oral. From the text:
HCT116 cell-subcutaneous transplanted model PTDSS2-KO HCT116 cells were transplanted to a right subcutaneous axillary portion of female BALB/c-nu/nu mice at a proportion of 1×10^7 cells/head, and when the tumor volume reached 100 to 300 mm^3 (estimated tumor volume (major axis×minor axis×minor axis/2)), mice were divided into groups of 6 or 5 mice each such that there was no difference between groups. The female BALB/c-nu/nu mice were purchased from CHARLES RIVER LABORATORIES JAPAN, INC. The compounds of Examples 58, 57, 53, 30, 42, 32, 34, 33, and 31 were orally administered from the day of grouping in the dosing schedule shown in Table 12 (twice daily, 11 successive days (BID×11), or once daily, 13 successive days (QD×13)). The tumor volume was measured until the next day of completion of the administration (test end date). 0.5% methylcellulose (MC) was administered to the vehicle control group as the vehicle.
TGI %=(1−TVt/TVc)×100 • TGI: Tumor growth suppression rate • TVt: Group mean tumor volume of compound administration group on test end date • TVc: Group mean tumor volume of vehicle control group on test end date

Setting [3] is: 40 mg/kg, QD × 13, test end date.

What is called IC50 is the point on the concentration scale where inhibition reaches its midpoint. Compound `CC(F)(F)CN1C(=O)c2[nH]nc(-c3cccc4[nH]c(=O)oc34)c2C1c1ccc(Oc2cc(C(F)(F)F)cc(C(F)(F)F)c2)cc1` (single isomer, unassigned; (+)) [(+)-7-[4-{4-[3,5-bis(trifluoromethyl)phenoxy]phenyl}-5-(2,2-difluoropropyl)-6-oxo-1,4,5,6-tetrahydropyrrolo[3,4-c]pyrazol-3-yl]-1,3-benzoxazol-2(3H)-one] registered an IC50 against PSS1 above 5 µM.
As usually defined, the GI50 is the concentration at which growth is held to half of that of the control. As to `O=C1c2[nH]nc(-c3cccc4[nH]c(=O)oc34)c2C(c2cc(Oc3ccccc3)ccc2F)N1Cc1ccccn1` (stereo not shown) [Example 13, 7-{4-(2-Fluoro-5-phenoxyphenyl)-6-oxo-5-[(pyridin-2-yl)methyl]-1,4,5,6-tetrahydropyrrolo[3,4-c]pyrazol-3-yl}-1,3-benzoxazol-2(3H)-one], the results for the GI50 (in experiment [1]; in the experiment with HCT116 cells) were 0.82 µM and above 25 µM, respectively.
With `CC(F)(F)CN1C(=O)c2[nH]nc(-c3cccc4[nH]c(=O)oc34)c2C1c1ccc(Oc2ccc(OC(F)(F)F)c(C(F)(F)F)c2)cc1` (single isomer, unassigned; (-)) [Example 33, (−)-7-[5-(2,2-difluoropropyl)-6-oxo-4-{4-[4-(trifluoromethoxy)-3-(trifluoromethyl)phenoxy]phenyl}-1,4,5,6-tetrahydropyrrolo[3,4-c]pyrazol-3-yl]-1,3-benzoxazol-2(3H)-one], the GI50 in experiment [1] came to 0.014 µM. In addition, the “TGI (%)” value stood at 97% in experiment [2] (10 mg/kg, QD × 13, test end date); 98% in experiment [2] (20 mg/kg, QD × 13, test end date); 98% in experiment [2] (setting [3]).
For `O=C1c2[nH]nc(-c3cccc4[nH]c(=O)oc34)c2C(c2ccc(F)cc2)N1CC(F)(F)F` (single isomer, unassigned) [Example 8, 7-[4-(4-Fluorophenyl)-6-oxo-5-(2,2,2-trifluoroethyl)-1,4,5,6-tetrahydropyrrolo[3,4-c]pyrazol-3-yl]-1,3-benzoxazol-2(3H)-one (enantiomer)], the GI50 in experiment [1] is 1.1 µM; in the experiment with HCT116 cells, above 25 µM.
In the case of `CC(F)(F)CN1C(=O)c2[nH]nc(-c3cccc4[nH]c(=O)oc34)c2C1c1ccc(Oc2ccc(Cl)cc2)cc1F` (single isomer, unassigned; (-)) [Example 58, (−)-7-{4-[4-(4-Chlorophenoxy)-2-fluorophenyl]-5-(2,2-difluoropropyl)-6-oxo-1,4,5,6-tetrahydropyrrolo[3,4-c]pyrazol-3-yl}-1,3-benzoxazol-2(3H)-one], the “TGI (%)” value in experiment [2] (200 mg/kg, BID × 11, test end date) is 87%.
For `CC(F)(F)CN1C(=O)c2[nH]nc(-c3cccc4[nH]c(=O)sc34)c2C1c1ccc(Oc2ccc(OC(F)(F)F)cc2)cc1` (stereo not shown) [Example 95, 7-[5-(2,2-Difluoropropyl)-6-oxo-4-{4-[4-(trifluoromethoxy)phenoxy]phenyl}-1,4,5,6-tetrahydropyrrolo[3,4-c]pyrazol-3-yl]-1,3-benzothiazol-2(3H)-one], the GI50 was 6.4 µM in experiment [1] and 7.3 µM in the experiment with HCT116 cells.
Regarding `CC(F)(F)CN1C(=O)c2[nH]nc(-c3cccc4[nH]c(=O)oc34)c2C1c1ccc(Oc2ccc(OC(F)(F)F)c(Cl)c2)cc1` (single isomer, unassigned; (-)) [Example 31, (−)-7-[4-{4-[3-chloro-4-(trifluoromethoxy)phenoxy]phenyl}-5-(2,2-difluoropropyl)-6-oxo-1,4,5,6,-tetrahydropyrrolo[3,4-c]pyrazol-3-yl]-1,3-benzoxazol-2-(3H)-one], the “TGI (%)” value in experiment [2] (setting [3]) is given as 88%.
As for `CC(F)(F)CN1C(=O)c2[nH]nc(-c3cccc4[nH]c(=O)oc34)c2C1c1cccc(Oc2ccc(F)cc2)c1` (single isomer, unassigned; (-)) [Example 53, (−)-7-{5-(2,2-Difluoropropyl)-4-[3-(4-fluorophenoxy)phenyl]-6-oxo-1,4,5,6-tetrahydropyrrolo[3,4-c]pyrazol-3-yl}-1,3-benzoxazol-2(3H)-one], the “TGI (%)” value in experiment [2] (50 mg/kg, BID × 11, test end date) is recorded as 41%; in experiment [2] (100 mg/kg, BID × 11, test end date) it was 83%.
Regarding `O=C1c2[nH]nc(-c3cccc4[nH]c(=O)oc34)c2C(c2cc(OC3CCOCC3)ccc2F)N1CC(F)(F)F` (stereo not shown) [Example 9, 7-[4-{2-Fluoro-5-[(oxan-4-yl)oxy]phenyl}-6-oxo-5-(2,2,2-trifluoroethyl)-1,4,5,6-tetrahydropyrrolo[3,4-c]pyrazol-3-yl]-1,3-benzoxazol-2(3H)-one], the results for the concentration for 50% growth inhibition (GI50) (in experiment [1]; with HCT116 cells) were 0.7 µM and above 25 µM, respectively.
Consider `CC(F)(F)CN1C(=O)c2[nH]nc(-c3cccc4[nH]c(=O)oc34)c2C1c1ccnc(Oc2ccc(F)cc2)n1` (stereo not shown) [Example 73, 7-{5-(2,2-Difluoropropyl)-4-[2-(4-fluorophenoxy)pyrimidine-4-yl]-6-oxo-1,4,5,6-tetrahydropyrrolo[3,4-c]pyrazol-3-yl}-1,3-benzoxazol-2(3H)-one], for which the 50% growth inhibitory concentration (GI50) turned out to be 0.89 µM in experiment [1] and 19 µM with HCT116 cells.

Source of the values: patent publication US12240855B2, “Pyrrolopyrazole derivative” (DAIICHI SANKYO COMPANY, LIMITED, priority 2019, dated 2025).
